Measurements as given in patent publication US20170008841A1, “CRYSTAL FORMS OF ASTAXANTHIN” (DSM IP ASSETS B.V., priority 2008, published 2017).
In brackets after ≈: the same amount, converted by molar mass. Read-outs that look alike come from different tables or passages of the source.

How the values were obtained:
Format in all cases: physicochemical
[1] = Stability of forms I and II in solid form / solid formulations (UV retention)
Procedure: Two solid formulations of the crystal forms I and II were prepared according to methods mentioned above. The formulations have been analyzed by Raman spectroscopy and—with regard to stability—by UV retention, a commonly used method for stability measurements.
The samples used in this experiment are: • Sample A: crystal form I prepared with methylene chloride • Sample B: crystal form II prepared with chloroform • For both formulations a matrix-composition consisting of a H2O-phase (Ca-Lignosulfonate & Yellow dextrin) and a Oil-phase (CH2Cl2) have been used. • Sample C: As a control commercial product Carophyll Pink 10%-CWS from DSM Nutritional Products Ltd was used. • In this case the following matrix-composition was used: H2O-phase: Ca-Lignosulfonate & Yellow dextrin; Oil-phase: CH2Cl2, & d,l-a-tocopherol, bees wax.)

[2] = Solvent-mediated transformation, slurry conversion experiments (XRPD of resulting crystals)
Procedure: Solvent-mediated polymorphic transformation is an efficient technique to study the phase stability of different crystal forms in various solvents. […] As transformation rates in different solvents vary from minutes to years, an appropriate solvent should be chosen to either facilitate or retard the transformation.
Currently, the choice of a solvent is still done by trial and error, which is time consuming. In accordance with the present invention, the stability test was carried out by the slurry conversion experiments in six different solvents. Form II (and in one case form I) is suspended as the initial form and the resulting crystals were analyzed by XRPD.

[3] = Solubility measurements of astaxanthin form I and II in different solvents
Procedure: The solubilities of astaxanthin form I and II in different solvents were compared. Due to the very low solubility in some solvents (Isopropanol and corn oil), experiments in these two solvents were measured by using an UV-VIS meter. The saturated solutions were prepared at different temperature in a double jacked vessel and 1 ml of the solution was taken out and measured by the UV-VIS meter. To calculate the real concentration in these solvents, the calibration was made firstly by building up the correlation between absorbance unit and solution concentration.

[4] = Ideal solubility calculated of forms I and II in DCM from melting points and heat of fusion (DSC data)
Text: The ideal solubility can be estimated by using the equation with measured melting points and heat of fusion form DCS data.

CC1=C(/C=C/C(C)=C/C=C/C(C)=C/C=C/C=C(C)/C=C/C=C(C)/C=C/C2=C(C)C(=O)[C@@H](O)CC2(C)C)C(C)(C)C[C@H](O)C1=O (relative stereo) [form I, all-trans-astaxanthin]
stable in solid form [1]: at least 5 months | stable in solid form ([1]; 20° C.-40° C.): at least 90 days | Final form after slurry conversion ([2]; Chloroform, 1 day, 20 ° C.): form II | Solubility [3]: 200.0 mg · 100 ml^−1 | solubility [3]: 10 to 20 mg/mL (≈ 16.8 to 33.5 mM) | Conc. (ideal solubility calculated) [4]: 0.00 g/mL

CC1=C(/C=C/C(C)=C/C=C/C(C)=C/C=C/C=C(C)/C=C/C=C(C)/C=C/C2=C(C)C(=O)[C@@H](O)CC2(C)C)C(C)(C)C[C@H](O)C1=O (relative stereo) [form II, all-trans-astaxanthin]
stable in solid form ([1]; 20° C.): at least 90 days | Final form after slurry conversion ([2]; DCM, 1 day, 20 ° C.): form I | Final form after slurry conversion ([2]; EtOAc, 4 days, 40 ° C.): form I | Solubility ([3]; Acetone, 20° C.): 9.0 mg · 100 ml^−1 | Solubility ([3]; DCM, 20° C.): 1082.0 mg · 100 ml^−1 | Conc. ([3]; DCM, Exp. T 12.00 ° C.): 0.02 g/mL | Ln X ([3]; DCM, Exp. T 12.00 ° C.): −6.19 | Ratio (Conc.) form II to form I ([3]; DCM, Exp. T 12.00 ° C.): 1.68 | Conc. ([3]; DCM, Exp. T 21.80 ° C.): 0.02 g/mL | Ln X ([3]; DCM, Exp. T 21.80 ° C.): −5.96 | Ratio (Conc.) form II to form I ([3]; DCM, Exp. T 21.80 ° C.): 1.83 | Conc. ([3]; DCM, Exp. T 30.70 ° C.): 0.04 g/mL | Ln X ([3]; DCM, Exp. T 30.70 ° C.): −5.52 | Ratio (Conc.) form II to form I ([3]; DCM, Exp. T 30.70 ° C.): 1.54 | Solubility ([3]; EtOAc, 20° C.): 10.0 mg · 100 ml^−1 | Solubility ([3]; EtOH, 20° C.): 11.8 mg · 100 ml^−1 | Solubility ([3]; IPA, 20° C.): 6.0 mg · 100 ml^−1 | solubility in Isopropanol ([3]; Isopropanol, 30° C.): 3.4 mg·100 ml^−1 | solubility in acetone ([3]; acetone, 20.5° C.): approximately 8 mg·100 ml^−1 | Conc. (ideal solubility calculated) ([4]; DCM, Cal. T 12.00 ° C.): 0.02 g/mL | Ratio (Conc.) form II to form I (ideal solubility calculated) ([4]; DCM, Cal. T 12.00 ° C.): 3530.79 | Conc. (ideal solubility calculated) ([4]; DCM, Cal. T 21.80 ° C.): 0.04 g/mL | Ratio (Conc.) form II to form I (ideal solubility calculated) ([4]; DCM, Cal. T 21.80 ° C.): 1927.23 | Conc. (ideal solubility calculated) ([4]; DCM, Cal. T 30.70 ° C.): 0.06 g/mL | Ratio (Conc.) form II to form I (ideal solubility calculated) ([4]; DCM, Cal. T 30.70 ° C.): 1151.20 | Conc. (ideal solubility calculated) ([4]; DCM, Cal. T 39.00 ° C.): 0.08 g/mL | Ratio (Conc.) form II to form I (ideal solubility calculated) ([4]; DCM, Cal. T 39.00 ° C.): 731.67
